Reference: patent US20020147237A1, “Preservation of bodily protein” (priority 2001, published 2002)

Key:
[1] = tested on: anaesthetised piglet model; test: arterial plasma amino acid, NH4, urea and blood glucose concentrations in anaesthetised piglets; type: in vivo; conditions: for arterial glutamine level after 60 minutes (in words): after one hour of infusion of the single substance
Protocol: (§1) Food was withheld from the animals for twelve hours prior to the experiment, but they had free access to water. Anaesthesia was induced by an intramuscular injection of xylazine 2.2 mg·kg^-1, tiletamine 3 mg·kg^-1+zolazepam 3 mg·kg^-1 and atropine 0.04 mg·kg^-1. In addition, all animals were given an intravenous bolus of morphine 1 mg·kg^-1 and, following tracheotomy, pancuronium bromide 0.3 mg·kg^-1. […] After the last measurements, still under anaesthesia, the animals were killed with an overdose of potassium chloride. After induction of anaesthesia the animals were tracheotomised and ventilated through an 8 mm endotracheal tube (Mallincrodt Laboratories, Athlone, Ireland) with a Servo ventilator […] ([…], Solna, Sweden). Ventilation was maintained at 25 breaths per minute with a positive end-expiratory pressure of 5 cm of H2O. […] The body temperature was kept stable by means of a thermostat controlled heating pad and warmed intravenous infusions. After skin incisions, a catheter was introduced in the left external jugular vein and advanced to the right hepatic vein under fluoroscopic control. Its position was confirmed by a contrast injection. The right external jugular vein was used for placement of a central venous catheter and a 7F pulmonary artery thermodilution catheter. An arterial catheter was inserted in a subclavian branch and advanced to a central position. Through a small suprapubic incision, a urinary catheter was placed in the bladder. A cutdown was made to place an ultrasonic flow probe (Transonic Systems Inc., Ithaca, N.Y., USA) around the femoral artery and to cannulate the femoral vein for blood sampling. Arterial blood gases were analysed on an ABL300/OSM3 system (Radiometer, Copenhagen, Denmark). […] The column eluate was mixed with ninhydrin reagent for amino acid detection. […] Blood glucose was analysed on a Reflolux® II (Boehringer Mannheim, Germany), using the glucose-oxidase/peroxidase reaction. Arterial and hepatic venous blood was drawn for calculations of splanchnic blood flow. […] The mean value of at least three measurements was adopted. After anaesthesia and surgical preparation the piglets were allowed a stabilisation period of one hour and randomly assigned to either Group 1 or Group 2.

[2] = tested on: anaesthetised piglet model; test: blood gas and hemodynamic variables in anaesthetised piglets during i.v. infusion; type: in vivo; conditions: 60 min
Protocol: as §1, with “Anaesthesia was induced by an intramuscular injection of xylazine 2.2 mg·kg^-1, tiletamine 3 mg·kg^-1+zolazepam 3 mg·kg^-1 and atropine 0.04 mg·kg^-1.” left out, “adopted. Calculation of splanchnic blood flow was carried out according to the constant dye infusion technique (10). […] Splanchnic plasma flow was calculated according to a formula derived from Fick's principle: [formula] […] Femoral artery plasma flow was calculated as blood flow (1-EVF). The turnover of amino acids, ammonium and urea were calculated as plasma flow times the arterio-venous plasma concentration difference with negative values indicating release and positive values uptake.” for “adopted.”

hind leg skeletal muscle = test: hind leg turnover (plasma flow times arterio-venous difference; negative = release, positive = uptake); type: in vivo, piglets; conditions: Group 1; 60 min; Dosage 1: NH4+ 12.3 μmol·kg^−1·min^−1 i.v. alone
Protocol: as §1, with “Anaesthesia was induced by an intramuscular injection of xylazine 2.2 mg·kg^-1, tiletamine 3 mg·kg^-1+zolazepam 3 mg·kg^-1 and atropine 0.04 mg·kg^-1.” left out, “Sweden).” for “Sweden). Ventilation was maintained at 25 breaths per minute with a positive end-expiratory pressure of 5 cm of H2O.”, “adopted. […] Femoral artery plasma flow was calculated as blood flow (1-EVF). The turnover of amino acids, ammonium and urea were calculated as plasma flow times the arterio-venous plasma concentration difference with negative values indicating release and positive values uptake.” for “adopted.”

splanchnic area = test: splanchnic turnover (plasma flow times arterio-venous difference; negative = release, positive = uptake); type: in vivo, piglets; conditions: 60 min
Protocol: as §1, with “Anaesthesia was induced by an intramuscular injection of xylazine 2.2 mg·kg^-1, tiletamine 3 mg·kg^-1+zolazepam 3 mg·kg^-1 and atropine 0.04 mg·kg^-1.” left out, “adopted. Calculation of splanchnic blood flow was carried out according to the constant dye infusion technique (10). […] Splanchnic plasma flow was calculated according to a formula derived from Fick's principle: [formula] […] Femoral artery plasma flow was calculated as blood flow (1-EVF). The turnover of amino acids, ammonium and urea were calculated as plasma flow times the arterio-venous plasma concentration difference with negative values indicating release and positive values uptake.” for “adopted.”

[3] = Group 1, 60 min, Dosage 1: NH4+ 12.3 μmol·kg^−1·min^−1 i.v. alone
[4] = Group 1, Dosage 1: NH4+ 12.3 μmol·kg^−1·min^−1 i.v. alone
[5] = Group 2, 60 min, Dosage 1: α-ketoglutarate 2.85 μmol·kg^−1·min^−1 i.v. alone
[6] = Group 2, Dosage 1: α-ketoglutarate 2.85 μmol·kg^−1·min^−1 i.v. alone

Cl.N [NH4Cl, ammonium chloride]
Glucose concentration [1, 3]: 5.5 ± 0.5 mmol/L | arterial Alanine concentration [1, 3]: 412 ± 44 a μmol · L^−1 | arterial Arginine concentration [1, 3]: 80 ± 8 µmol/L | arterial Glutamate concentration [1, 3]: 191 ± 20 µmol/L | arterial Glutamine concentration [1, 3]: 450 ± 26 a μmol · L^−1 | arterial NH4^+ concentration [1, 3]: 135 ± 14 a μmol · L^−1 | arterial Total AA concentration [1, 3]: 3034 ± 139 µmol/L | arterial Urea concentration [1, 3]: 3.4 ± 0.3 mmol/L | arterial glutamine level after 60 minutes (in words) [1]: increased | Arterial pH [2, 4]: 7.43 ± 0.01 a | C.O. [2, 4]: 138 ± 17 mL/min/kg | Leg blood flow [2, 4]: 4.7 ± 0.4 mL/min/kg | PaCO2 [2, 4]: 5.18 ± 0.06 kPa | Spl. blood flow [2, 4]: 43 ± 5 mL/min/kg | Leg blood flow ([2]; Group 1, Dosage 1: NH4+ 12.3 μmol·kg^−1·min^−1 i.v. alone, listed as ammonium chloride): 4.7 ± 0.4 a ml · min^−1 · kg^−1 | Alanine turnover, hind leg (hind leg skeletal muscle): -0.13 ± 0.04 µmol/min/kg | Arginine turnover, hind leg (hind leg skeletal muscle): 0.01 ± 0.005 µmol/min/kg | FE (%)-NH4^+, hind leg (hind leg skeletal muscle): 46 ± 3 a % | Glutamate turnover, hind leg (hind leg skeletal muscle): 0.22 ± 0.03 µmol/min/kg | Glutamine turnover, hind leg (hind leg skeletal muscle): -0.09 ± 0.04 µmol/min/kg | NH4^+ turnover, hind leg (hind leg skeletal muscle): 0.22 ± 0.03 a μmol·min^−1·kg^−1 | Total AA turnover, hind leg (hind leg skeletal muscle): 0.12 ± 0.23 µmol/min/kg | Urea turnover, hind leg (hind leg skeletal muscle): 0.2 ± 0.2 µmol/min/kg | Alanine turnover, splanchinc (splanchnic area; [4]): 2.22 ± 0.28 µmol/min/kg | Arginine turnover, splanchinc (splanchnic area; [4]): -0.23 ± 0.10 µmol/min/kg | FE (%)-NH4^+, splanchinc (splanchnic area; [4]): 81 ± 4 a % | Glutamate turnover, splanchinc (splanchnic area; [4]): -4.32 ± 0.28 µmol/min/kg | Glutamine turnover, splanchinc (splanchnic area; [4]): 2.59 ± 0.56 µmol/min/kg | NH4^+ turnover, splanchinc (splanchnic area; [4]): 3.09 ± 0.28 a μmol·min^−1·kg^−1 | Total AA turnover, splanchinc (splanchnic area; [4]): 3.93 ± 2.08 µmol/min/kg | Urea turnover, splanchinc (splanchnic area; [4]): -3.2 ± 1.4 µmol/min/kg

O=C(O)CCC(=O)C(=O)O [α-KGA, α-ketoglutaric acid]
Glucose concentration [1, 5]: 5.6 ± 0.4 mmol/L | arterial Alanine concentration [1, 5]: 462 ± 34 µmol/L | arterial Arginine concentration [1, 5]: 75 ± 5 µmol/L | arterial Glutamate concentration [1, 5]: 264 ± 32 µmol/L | arterial Glutamine concentration [1, 5]: 361 ± 24 z μmol · L^−1 | arterial Urea concentration [1, 5]: 2.7 ± 0.2 mmol/L | drop of arterial glutamine concentration compared to the baseline level ([1]; Group 2, after one hour of α-KGA infusion alone): 9±2% | arterial glutamine level after 60 minutes (in words) [1]: decreased | Arterial pH [2, 6]: 7.47 ± 0.01 | C.O. [2, 6]: 144 ± 10 a ml · min^−1 kg^−1 | PaCO2 [2, 6]: 5.27 ± 0.06 kPa | FE (%)-NH4^+, splanchinc (splanchnic area; [6]): 28 ± 10%
